Assay in all cases: DTP human tumour cell line panel, 48 h
Test [1] deals with SK-OV-3 ovarian.
For test [2], the system named is NCI-H522 lung.
Test [3] has as its system A549 NSCLC.
Test [4] has as its system 786-0 renal.
Test [5] relates to HOP-62 NSCLC.
The subject of test [6] is EKVX NSCLC.
In test [7] the test system is NCI-H226 lung.
Test [8] deals with MOLT-4 leukemia.
Test [9] concerns SN12C renal.
The subject of test [10] is SF-539 CNS.

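Interpolation was linear, between the two tested concentrations surrounding the appropriate level; five concentrations were tested over 48 hours in 96-well plates. GI50: concentration for 50% inhibition of growth. TGI: total growth inhibition.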 Bounds are passed on as bounds.

In the case of `CC1=Nc2c(ccc3c2C(=O)c2ccccc2C3=O)NC(c2ccncc2)C1` (centres undefined), the TGI in test [1], in [2], in test [3], in test [4], in [5] and in [6] was more than 100 µM throughout. Also, the TGI in test [7], in test [8], in test [9] and in test [10] was more than 100 µM each time. For the same compound, the GI50 in [4], in test [6], in test [7] and in test [10] was more than 100 µM throughout.
On to `Clc1ccc(OCc2nnc3n2N=C(c2ccc(Cl)cc2Cl)CS3)c(Cl)c1`, for which the GI50 (in general, the concentration giving 50% growth inhibition) in test [1] is 43 µM; in test [2], 14.5 µM; in test [3], 28.8 µM; in [4], 28.5 µM; in [5], 27.8 µM; in [6], 26.2 µM. Besides, the GI50 is 17.6 µM in test [7], 22.8 µM in test [8], 14.2 µM in test [9] and 18.7 µM in test [10]. In addition, the TGI (commonly the concentration giving total growth inhibition) was more than 100 µM in [1]; 37.6 µM in test [2]; 95.8 µM in [3]; 98.8 µM in test [4]; 78.6 µM in test [5]; 74.1 µM in test [6]. Besides, the TGI is 43.2 µM in test [7], more than 100 µM in [8], 32.3 µM in test [9] and 38.7 µM in [10].
As to `C=C1C(=O)O[C@H]2[C@H]1CC/C(COC(=O)c1cc3cc(OC)ccc3[nH]1)=C\CC[C@@]1(C)O[C@@H]21`, the GI50 in test [1] is 4.9 µM; in test [2] it was 0.701 µM; in test [3] it was 1.66 µM; in [4], 1.27 µM; in test [5] it was 1.64 µM; in test [6], 1.5 µM. In addition, the GI50 was 1.57 µM in [7], 1.32 µM in test [8], 1.77 µM in [9] and 1.02 µM in test [10]. Also, the TGI in [1] turned out to be 17.1 µM; in [2], 2.28 µM; in [3], 3.38 µM; in [4], 2.68 µM; in [5], 3.29 µM; in test [6], 3.1 µM. Besides, the TGI was found to be 3.94 µM in test [7], 5.21 µM in test [8], 3.52 µM in [9] and 2.25 µM in test [10].
Regarding `CC(C)(C)c1nc2c(o1)C(=Nc1ccc(F)cc1)c1ccccc1C2=O`, the TGI was 45.9 µM in [1]; 20.5 µM in [2]; 22.7 µM in test [3]; 52.5 µM in [4]; 32.4 µM in [5]; more than 83.5 µM in test [6]. Further, the TGI is 34.3 µM in test [7], more than 100 µM in [8], 23.8 µM in test [9] and 14.2 µM in test [10].
`CCn1c(-c2nonc2N)nc2ccc(F)cc21`: the GI50 in [1] is more than 25 µM; in [2], more than 25 µM; in [3] it was more than 25 µM; in [4] it was more than 25 µM; in test [5] it was more than 25 µM; in test [6], more than 22.2 µM. Further, the GI50 in [7], in test [8], in [9] and in [10] was more than 25 µM throughout. Further, the TGI in test [1], in test [2], in [3], in test [4], in test [5] and in test [6] was more than 25 µM in each case. The TGI in test [7], in test [8], in [9] and in test [10] was more than 25 µM in each case.
Consider `CC(=O)[CH-]C(C)=O.CC(=O)[CH-]C(C)=O.N=CC=N.[Sn+2]`, for which the GI50 is 8.74 µM in [1]; 0.911 µM in test [2]; 9.6 µM in [3]; 1.76 µM in [4]; 19.3 µM in test [5]; 6.42 µM in [6]. Besides, the GI50 in [7] is 9.9 µM; in [8], 2.03 µM; in [9] it was 2.9 µM; in [10] it was 3.23 µM. The TGI came out at 21.7 µM in test [1]; 2.13 µM in [2]; 22.4 µM in [3]; 3.23 µM in test [4]; 33.9 µM in [5]; 19.4 µM in test [6]. Also, the TGI was determined as 23 µM in test [7], 7.47 µM in test [8], 9.14 µM in [9] and 11.8 µM in test [10].
Regarding `CCN(CCO)CCNc1ccc(C)c2sc3cc(Cl)ccc3c(=O)c12`, the GI50 in test [1] is 1.61 µM; in test [2], 1.56 µM; in test [3], 1.73 µM; in test [4], 1.41 µM; in test [5], 1.5 µM; in [6], 1.62 µM. Also, the GI50 was 1.39 µM in test [7], 1.27 µM in [8], 1.47 µM in test [9] and 1.73 µM in test [10]. In addition, the TGI in [1] worked out at 3.09 µM; in [2], 3.21 µM; in test [3], 3.28 µM; in [4], 2.84 µM; in [5] it was 2.95 µM; in test [6], 3.18 µM. Moreover, the TGI turned out to be 3.12 µM in [7], 3.01 µM in test [8], 3.11 µM in [9] and 3.43 µM in [10].
In the case of `C=C(COC(C)=O)CC(/C=C(\C)CCC=C(C)C)OC(C)=O` (centres undefined), the TGI in [1], in test [2], in [3], in test [4], in test [5] and in [6] was more than 100 µM each time. Besides, the TGI in test [7], in test [8], in test [9] and in [10] was more than 100 µM throughout.
For the compound `COc1cc(-c2cn(C)c(=O)c(C)c2C)cc(OC)c1CN1CC[C@H](N2CCN(c3ccc(N[C@H]4CCC(=O)NC4=O)cc3F)CC2)C(F)(F)C1`, the GI50 in test [1] was 18.4 µM; in [2], 8.09 µM; in test [3] it was 12.3 µM; in test [4], 12.8 µM; in [5], 14 µM; in test [6], 12.7 µM. The GI50 in test [7] was 13.7 µM; in test [8], 21.2 µM; in [9] it was 11.6 µM; in test [10] it was 14.4 µM. The TGI in [1] amounted to 36.2 µM; in test [2], 24.1 µM; in [3], 31.1 µM; in [4], 36.6 µM; in [5], 39.2 µM; in test [6], 34.9 µM. The TGI in test [7] is 29.1 µM; in test [8], more than 100 µM; in test [9] it was 26.8 µM; in [10], 28.6 µM.
For `NCCN1CCN(c2nccc(-c3ccc4ccccc4c3)n2)CC1`, the GI50 in [1] was 2.1 µM; in test [2], 1.97 µM; in [3] it was 1.86 µM; in [4] it was 1.69 µM; in test [5], 1.76 µM; in test [6] it was 1.83 µM. The GI50 is 2.03 µM in test [7], 2.05 µM in [8], 1.71 µM in [9] and 1.79 µM in [10]. Further, the TGI in [1] was 5.34 µM; in [2] it was 3.84 µM; in test [3] it was 3.43 µM; in [4], 3.17 µM; in test [5], 3.28 µM; in test [6], 4.08 µM. In addition, the total growth inhibition concentration (TGI) came out at 5.66 µM in test [7], 4.44 µM in [8], 3.81 µM in test [9] and 3.28 µM in [10].
Turning to `CC1CCCC(C(=O)/C(=C/c2cccc(Cl)c2)C(=O)C(=O)O)C1` (centres undefined), the TGI in test [1] was more than 100 µM; in test [2], 24.7 µM; in test [3], more than 100 µM; in [4] it was 33 µM; in [5], more than 100 µM; in [6] it was more than 100 µM. Moreover, the TGI was more than 100 µM in test [7], 49.8 µM in [8], more than 100 µM in test [9] and 64.9 µM in [10].
On to `CCOC(=O)[C@@H](C)C[C@H](Cc1ccccc1)NC(=O)c1csc([C@@H](C[C@H](C(C)C)N(C)C(=O)[C@@H](NC(=O)[C@H]2CCCCN2C)C(C)(C)C)OC(C)=O)n1`, for which the GI50 in test [1], in [2], in test [3], in test [4], in test [5] and in test [6] was less than 0.00167 µM in each case. Besides, the GI50 is less than 0.00167 µM in test [7], 0.00217 µM in [8], 0.00307 µM in test [9] and less than 0.00167 µM in [10]. Further, the TGI in test [1] was more than 16.7 µM; in test [2], 0.0644 µM; in test [3] it was more than 16.7 µM; in test [4] it was more than 6.61 µM; in test [5], more than 16.7 µM; in test [6], more than 16.7 µM. Moreover, the TGI was 0.104 µM in test [7], more than 16.7 µM in test [8], more than 16.7 µM in [9] and 0.00437 µM in test [10].
`CNC(=O)c1cc(Oc2ccc(NC(=O)Nc3ccc(Cl)c(OC(F)(F)F)c3)c(F)c2)ccn1`: the GI50 was 4.32 µM in test [1]; 0.971 µM in test [2]; 2.03 µM in test [3]; 4.65 µM in [4]; 2.49 µM in [5]; 1.55 µM in [6]. Besides, the GI50 in test [7] was 2.5 µM; in test [8], 1.19 µM; in test [9], 2.05 µM; in test [10], 3.38 µM. The TGI is more than 33.2 µM in test [1]; 14.8 µM in test [2]; more than 33.2 µM in test [3]; more than 33.2 µM in test [4]; 29.3 µM in [5]; 23.6 µM in test [6]. Besides, the TGI in test [7] is 21.4 µM; in test [8] it was 8.64 µM; in test [9] it was 23 µM; in test [10] it was 8.13 µM.
For `N#Cc1c(-c2ccccc2)nc2c(c(-c3ccccc3)nn2-c2ccccc2)c1-c1ccc(O)cc1`, the GI50 in [1] was 2.87 µM; in test [2], 2.32 µM; in test [3], 2.57 µM; in test [4], 2.16 µM; in [5], 2.12 µM; in [6] it was 1.92 µM. For the same compound, the GI50 in test [7] was 1.97 µM; in test [8] it was 2.48 µM; in test [9], 1.64 µM; in [10], 1.25 µM. The TGI was determined as 8.48 µM in [1]; 6.03 µM in test [2]; 6.87 µM in test [3]; 5.35 µM in test [4]; 4.49 µM in [5]; 5.1 µM in test [6]. The TGI in test [7] worked out at 4.51 µM; in test [8], 7.86 µM; in test [9], 3.04 µM; in test [10], 2.76 µM.
For `CCCNCc1cc(C)cc2c1nc(N1CCNCC1)n2Cc1cc(C)c(F)c(C)c1`, the GI50 in [1] was 15.8 µM; in [2] it was 2.09 µM; in test [3], 4.54 µM; in test [4], 1.86 µM; in [5], 17 µM; in test [6], 9.56 µM. Further, the GI50 is 19.1 µM in test [7], 1.8 µM in [8], 7.57 µM in test [9] and 1.79 µM in test [10]. Also, the TGI came out at 29.4 µM in [1]; 5.67 µM in test [2]; 17.1 µM in test [3]; 3.96 µM in [4]; 32.2 µM in test [5]; 22.6 µM in test [6]. For the same compound, the TGI in [7] came out at 38.2 µM; in test [8] it was 4.39 µM; in test [9] it was 21.6 µM; in test [10] it was 3.59 µM.
For the compound `COc1ccc(/C=C/C(=O)c2sc(-n3nc(-c4ccccc4)cc3-c3ccccc3)nc2C)cc1OC`, the TGI in [1] is more than 100 µM; in test [2], 53.9 µM; in test [3] it was more than 100 µM; in test [4], more than 100 µM; in test [5], more than 100 µM; in test [6] it was more than 100 µM. The TGI in test [7] is more than 100 µM; in test [8] it was 64.8 µM; in [9], more than 100 µM; in test [10], 81.1 µM.
